Measured values from patent US20250074894A1, “NITROPHENYL-ACRYLAMIDES AND USES THEREOF” (BROWN UNIVERSITY, priority 2021, published 2025).
Blank lines part the entries; values can stand above or below the molecule they belong to.

Legend:
[1] = system: diffuse intrinsic pontine glioma (DIPG) cells; assay: Limiting dilution assay (LDA), DIPG cell self-renewal; assay type: cell-based, human; details: clonal tumor spheres over 2 weeks
Protocol: A limiting dilution assay (LDA) was used to determine the effect of FTO inhibition with Compound 31 on the self-renewal ability of diffuse intrinsic pontine glioma (DIPG) cells—a type of brain tumor found in an area of the brainstem known as the pons. With this assay DIPG cells are plated on 96-well plates in various numbers (2000 cell per well down to 1 cell per well) and the ability of cells to self-renew and form clonal tumor spheres is measured over a period of 2 weeks.

[2] = system: Patient derived DIPG cells; assay: DIPG cell invasion (Incucyte Cell Imager); assay type: cell-based, human; details: 10 μM, 72 hours, vs DMSO, p<0.05
Protocol: Patient derived DIPG cells were incubated with 10 μM Compound 31 or DMSO (control) for 72 hours and DIPG invasion into the surrounding extracellular matrix was quantified in real time using Incucyte Cell Imager.

[3] = system: Glioma stem cells; assay: Glioma stem cell viability, Cell Titer Glo; assay type: cell-based, human; details: 48 hours
Protocol: Glioma stem cells were incubated with various increasing concentrations of Compound 31 and the percentage of viable cells at 48 hours was quantified using Cell Titer Glo (Promega). […] For the functional assays described below, the IC10 was used to maintain at least 90% viability.

[4] = system: Patient derived glioma stem cells (GSCs); assay: GSC invasion live imaging (Incucyte); assay type: cell-based, human; details: vs DMSO
Protocol: GSCs in Matrigel 3D matrix, were treated with 40 µM entacapone or DMSO (control) and live imaging was performed in regular time intervals using the Incucyte live cell imaging system. Normalized area of invasion was quantified following normalization of the invading area with the area occupied by the GSC sphere.
Patient derived glioma stem cells (GSCs) were incubated with 70 μM Compound 31 or DMSO (control) for 72 hours and GSC invasion into the surrounding extracellular matrix was quantified in real time using Incucyte Cell Imager. […] GSC invasion is one of the hallmarks of glioblastoma.

[5] = molecular target: FTO (Homo sapiens, UniProt Q9C0B1); assay: FTO activity assay (demethylation of m6A methylated RNA substrate); assay type: biochemical; details: for inhibition at 20 µM: read-out: reduction of FTO activity / FTO activity inhibition
Protocol: An FTO activity assay was performed to determine the inhibitory activity of compounds provided herein towards FTO and compare them with entacapone. This assay measures the ability of FTO to demethylate an m6A methylated RNA substrate. The assay is specific to FTO and is not affected by the function of ALKBH5, which is another RNA demethylase in eukaryotic cells.

[6] = system: Hela cells; details: cited from earlier work
[7] = system: GSC-grafted mice; details: cited from earlier work
[8] = system: Notch1; assay: Notch1 inhibition assay (Western Blot in GSCs); assay type: cell-based, human; details: 40 µM, 48 hours, two GSC lines
[9] = system: GSCs from two patients with glioblastoma; assay: In vitro extreme limiting dilution analysis (ELDA), GSC self-renewal; assay type: cell-based, human; details: 40 μM, 14 days, vs DMSO
Protocol: To examine whether treatment with Entacapone affects the ability of GSCs to self-renew, serial dilutions of GSCs were cultured from two patients with glioblastoma in the presence of 40 μM entacapone or DMSO (Control) for 14 days.

[10] = system: cancer stem cell transcripts in GSCs; assay: qPCR array for 84 cancer stem cell markers in GSCs; assay type: cell-based, human; details: 40 µM, 48 hours
Protocol: GSCs were treated with 40 µM entacapone for 48 hours to assess whether entacapone would affect expression of stemness-related transcripts. A qPCR array for 84 validated cancer stem cell markers was performed (Qiagen-RT-profiler PCR arrays).

FTO, sequence (Q9C0B1 whole entry, species assumed): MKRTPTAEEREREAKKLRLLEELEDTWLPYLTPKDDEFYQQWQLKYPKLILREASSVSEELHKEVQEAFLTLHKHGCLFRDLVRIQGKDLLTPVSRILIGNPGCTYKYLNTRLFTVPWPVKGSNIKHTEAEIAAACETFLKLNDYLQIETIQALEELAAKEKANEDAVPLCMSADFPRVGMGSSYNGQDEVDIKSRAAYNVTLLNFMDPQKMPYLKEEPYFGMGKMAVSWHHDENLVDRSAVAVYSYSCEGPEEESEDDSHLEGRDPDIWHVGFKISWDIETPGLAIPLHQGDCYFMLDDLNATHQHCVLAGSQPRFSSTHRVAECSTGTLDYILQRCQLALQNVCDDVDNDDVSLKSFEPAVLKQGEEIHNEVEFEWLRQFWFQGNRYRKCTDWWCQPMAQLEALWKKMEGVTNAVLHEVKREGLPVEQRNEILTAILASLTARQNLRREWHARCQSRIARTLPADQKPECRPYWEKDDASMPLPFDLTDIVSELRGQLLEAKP

- IC50 ([3]; Homo sapiens, read-out: IC50, viable cells): 114 µM
- % FTO activity ([5]; 20 μM): 54%
- inhibition at 20 µM ([5]; 20 μM): ≥ 40%
- % FTO activity ([5]; 40 μM): 48%
Structure (SMILES): CCN(CCSCCCF)C(=O)/C(C#N)=C/c1cc(O)c(O)c([N+](=O)[O-])c1 [Compound 31]
- self-renewal ability of DIPG cells [1]: significantly inhibits the self-renewal ability of DIPG cells
- DIPG invasion into surrounding extracellular matrix [2]: significant inhibition of DIPG invasion
- IC10, viable cells [3]: 70 µM
- GSC invasion into surrounding extracellular matrix ([4]; 70 μM, 72 hours, p<0.05): significant inhibition of GSC invasion
- FTO inhibitory activity compared to entacapone [5]: significantly higher FTO inhibitory activity compared to entacapone

Structure (SMILES): C=CC(=O)Nc1ccc([N+](=O)[O-])cc1 [N-(4-nitrophenyl) acrylamide]
- IC50 [6]: 1000 µM

- % FTO activity ([5]; 20 μM): 61%
- inhibition at 20 µM ([5]; 20 μM): ≥ 40%
- % FTO activity ([5]; 40 μM): 59%
Structure (SMILES): CCN(CCN1CC(OC)C1)C(=O)/C(C#N)=C/c1cc(O)c(O)c([N+](=O)[O-])c1 [Compound 1]
- FTO inhibitory activity compared to entacapone [5]: significantly higher FTO inhibitory activity compared to entacapone

Structure (SMILES): CCOC(=O)c1ccccc1Nc1c(Cl)ccc(C)c1Cl [ethyl ester of meclofenamic acid]
- lifespan [7]: substantially prolong lifespan
- tumor progression [7]: suppress tumor progression

- % FTO activity ([5]; 20 μM): 83%
- inhibition at 20 µM ([5]; 20 μM): < 20%
- % FTO activity ([5]; 40 μM): 61.5%^
Structure (SMILES): CCN(CC)C(=O)/C(C#N)=C/c1cc(O)c(O)c([N+](=O)[O-])c1 [Entacapone, entacapone, reference compound]
- Notch1 protein expression [8]: induces inhibition of Notch1 protein expression
- normalized GSC invasion area ([4]; 40 µM, Matrigel 3D matrix, 66 hours): inhibits invasion of GSCs
- tumor-sphere formation frequency of GSCs [9]: significantly decreased the tumor-sphere formation frequency
- FTO activity inhibition compared with 20 μM compound 31 ([5]; 40 μM): less FTO activity inhibition than 20 UM compound 31
- expression of cancer stem cell transcripts [10]: significant inhibition of several cancer stem cell transcripts
